Laboratory results reported in patent US8957086B2, “Compounds and methods of treating brain disorders” (The Board of Trustees of the University of Illinois, priority 2010, dated 2015).
“Also recorded” adds a separate entry of the source. Blank lines part the entries; values can stand above or below the compound they belong to.

Experiments:
[1] = system: primary rat glial cultures; assay: Attenuation of inflammatory response (nitrite production, Griess assay) in LPS-treated primary rat glial cultures; assay type: cell-based; conditions: primary rat glial cells, LPS/OGD, nitrite by Griess assay
Description: Attenuation of cytokine and inflammatory response by compounds of structural formula (I) were measured by induction of NOS reflected by inhibition of nitrite production in LPS/IFNγ treated primary rat glial cultures.
Primary mixed glia cultures were obtained as described previously (Vairano et al., 2002). Briefly, 1-2 day old Sprague Dawley rat pups were used to prepare primary mixed glial cultures. Cortices were dissected and meninges were removed. Tissues were cut into small pieces and transferred into PBS (without Ca^2+ and Mg^2+) containing 0.125% Trypsin and DNAse 35500 KU/ml, then incubated at 37° C. for 20 min. The cells were dissociated mechanically resuspended in DMEM (10% FBS), then grown in a T-75 flask. After 11-13 days in culture, the cells were replated at 2×10^5 cells/cm^2 in 96-well plates. Cells were used the next day.
Primary cultured cortical glia were incubated with LPS ([…]) in deoxygenated, glucose-free solution, pH 7.4, containing the following (in mM): NaCl 116, CaCl2 1.8, MgSO4 0.8, KCl 5.4, NaH2PO4 1, NaHCO3 14.7, HEPES 10. The cells were placed in a humidified 37° C. incubator (95% N2, 5% CO2) for 2 hours, then conditioned DMEM media containing LPS or PBS were given back to the cells. The tested compounds ([…]) or MAPK inhibitor (SB203580, […]) were present during and after the OGD. […] Cell viability was measured later by MTT assay. […]

[2] = system: primary rat cortical neuron cultures; assay: Neuroprotection in primary rat cortical neuron cultures subjected to oxygen-glucose deprivation (OGD), MTT and LDH; assay type: cell-based; conditions: primary cultured rat cortical neurons, OGD 2 h + 24 h reoxygenation, 50 μM
Description: Neuroprotection by compounds of structural formula (I) in neurons using oxygen-glucose deprivation (OGD) followed by recovery for 24 hours in primary rat cortical neuron cultures, measured by LDH release and MTT viability was determined (FIG. 1).
Test compounds are compared to vehicle controls and the known neuroprotective agent CMZ. DMSO is dimethyl sulfoxide. Neuroprotection is represented by (i) a high cell viability relative to control as measured by the MIT assay and (ii) a low LDH activity as measured by assay of LDH. The abscissa in FIGS. 1A and 1B identify the compounds tested by GN number. The structures of AR-OH (also referred to as #00) and AR-N3 (also referred to as #9 or GN-9) are provided above. The structure of AR (also referred to as #10) and CMZ are as follows: […]
FIG. 1A illustrates the evaluation of neuroprotection in primary neurons subject to transient OGD assayed by MTT. […] Cell viability was measured 24 hours after reperfusion by MTT assay. Cell viability percentage was calculated relative to 100% protection from CMZ against OGD-reperfusion injury. […]
FIG. 1B illustrates the evaluation of neuroprotection in primary rat neurons subject to transient OGD assayed by LDH. […] Cell viability was measured 24 hours after reperusion by […]. Cell viability percentage was calculated relative to 100% cytoxicity from OGD-reperfusion in the presence of vehicle (DMSO). […]

scopolamine treated mice = assay: Step through passive avoidance (STPA) in scopolamine treated mice; assay type: in vivo; conditions: i.p.
Source text: The scopolamine treatment results in mice having an attenuated cognitive function. STPA (step through passive avoidance task) is widely used to test long-term memory. The STPA apparatus consists of a two-compartment acrylic box with an illuminated side (15×12×12 cm) connected to a dark side (15×12×12 cm) by a vertical door. The dark side is equipped with an electric grid floor. During the habituation, animals were habituated to the normal behavior of rapidly translocating to the dark from the light side, where they were initially placed. Habituation trials are continued until latency of entering the dark side for each animal is less than 30 seconds. Animals that cannot pass this screening phase are excluded from the study. During the training, animals were trained by receiving an aversive electrical shock (0.5 mA, 2 sec), triggered by entry to the dark compartment, until the latency of entering the dark side reach 300 seconds. At 24 and 72 hours post-training, the animals again are individually placed in the light compartment and the latency to enter the dark compartment, without shock stimulus, is recorded. Statistical analysis of the latency data was performed with one-way ANOVA followed by Bonferroni multiple comparison test. For STPA tests using naïve animals, each animal was administered two ip injections. […]

[3] = Brain penetration in WT mice after i.p. injection, LC-MS (MRM); assay type: in vivo; conditions: i.p. 1 mg/kg, S/N ratio
Description: Compounds of structural formula (II), i.e., GN-29 and GN-205, were tested for an ability to penetrate the brain. WT mice were given an i.p. injection at a dose of 1 mg/kg, which is equivalent to transgenic mice studies. The presence of drugs in brain tissue was measured by LC-MS using MRM methods.

[4] = Stability in phosphate buffer (pH 7.4) monitored using HPLC; assay type: physicochemical; conditions: pH 7.4, HPLC
Source text: The stability of compounds of structural formula (II) in phosphate buffer (pH 7.4) was monitored using HPLC.

TNF-α = TNF-α ELISA on cortical/hippocampal protein homogenates of LaFerla 3×Tg AD mice; assay type: in vivo; conditions: 11 week treatment
Source text: (§1) Amyloid load also was reduced by drug treatment (data not shown).

LaFerla 3×Tg AD Mice = assay: STPA latency in LaFerla 3×Tg AD mice after 11 week treatment; assay type: in vivo; conditions: for latency after 24 h in STPA: 11 week treatment
[5] = system: CREB phosphorylated at serine 133; assay: CREB phosphorylated at serine 133 in LaFerla 3×Tg AD mice; assay type: in vivo; conditions: 11 week treatment
Source text: as §1

[6] = system: primary cortical cultures treated with human Aβ1-42; assay: Neuroprotection in primary neurons treated with Aβ42 oligomers, with picrotoxin preincubation (MTT, LDH); assay type: cell-based; conditions: 100 μM picrotoxin 1 h preincubation, test compounds 50 μM, Aβ1-42 250 nM, 5 days
Description: FIGS. 3A and 3B illustrate neuroprotection in response to amyloid neurotoxicity afforded by compounds of structural formula (I). FIGS. 3A and 3B show neuroprotection in primary neurons treated with Aβ42. In particular, primary cortical cultures at 10-11 DIV were preincubated with 100 μM of picrotoxin for one hour, then perfused with test compounds at 50 μM. Soluble oligomers of human Aβ1-42 then were added at a physiologically relevant concentration of 250 nM. Cultures then were incubated for 5 days, after which time MTT and LDH assays were performed. Results were normalized to untreated DMSO and treated DMSO and statistical analysis was performed with ANOVA, with post-hoc Dunnet's MCT comparing to untreated DMSO, […], ***=p<0.001. Picrotoxin acts as a noncompetitive antagonist for the GABAA receptor chloride channels. It is therefore a channel blocker rather than a receptor antagonist.

Compound: Cc1ncsc1C(c1ccccc1)n1cc(-c2cccnc2)nn1 (stereo not shown) [GN-12]
attenuation of inflammatory response [1]: attenuation of inflammatory response; also recorded: superior neuroprotective and anti-neuroinflammatory activities
neuroprotection [2]: substantial neuroprotection; also recorded: superior neuroprotective and anti-neuroinflammatory activities
reversal of cognition deficit (STPA) (scopolamine treated mice): reverse a cognition deficit

Compound: Cc1ncsc1C(CO[N+](=O)[O-])n1cc(-c2cccnc2)nn1 (stereo not shown) [GN-205]
presence in brain tissue (bioavailability in the brain) [3]: highly bioavailable in the brain

Compound: Cc1ncsc1C(NC(=O)C1(CO[N+](=O)[O-])CC1)c1ccccc1 (stereo not shown) [GN-44]
stability in phosphate buffer [4]: excellent stability

Compound: Cc1ncsc1CC[N+](=O)[O-] [GT-1061, reference compound]
levels of TNF-α (TNF-α): 2.18±0.34 μg/mg protein
latency after 24 h in STPA (LaFerla 3×Tg AD Mice): 248 ± 35 s
levels of CREB phosphorylated at serine 133 [5]: 1.07±0.11 units/mg protein

Compound: picrotoxin
effect of picrotoxin on neuroprotection by test compounds [6]: blocks the neuroprotective actions of the test compounds

More lines, main results first:

presence in brain tissue (bioavailability in the brain) [3]: highly bioavailable in the brain
Compound: Cc1ncsc1C(CO[N+](=O)[O-])c1ccccc1 (stereo not shown) [GN-29]
levels of TNF-α (TNF-α): 1.70±0.09 μg/mg protein
latency after 24 h in STPA (LaFerla 3×Tg AD Mice): 277 ± 14 s
cognitive deficit in the transgenic mouse model (LaFerla 3×Tg AD Mice; in words): reverses a cognitive deficit
levels of CREB phosphorylated at serine 133 [5]: 1.2±0.16 units/mg protein

stability in phosphate buffer [4]: excellent stability
Compound: Cc1ncsc1C(OCCOCCO[N+](=O)[O-])c1ccccc1 (stereo not shown) [GM-30]

stability in phosphate buffer [4]: excellent stability
Compound: Cc1ncsc1C(NC(=O)OCCCCO[N+](=O)[O-])c1ccccc1 (stereo not shown) [GN-203]
